Values after ≈ are worked out from the molar mass of the structure shown. Read-outs that look alike come from different tables or passages of the source. Square brackets hold non-standard residues; d marks the D form. Ends that are not written are not given here. Peptide text beside a SMILES is read from it. * marks the point of attachment. Trp(2-Pmc) = Cc1c(C)c(S(=O)(=O)c2[nH]c3ccccc3c2C[C@H](N)C(=O)O)c(C)c2c1OC(C)(C)CC2; Fmoc = O=C(OCC1c2ccccc2-c2ccccc21)*; Acm = CC(=O)NC*
Experiments:
[1] = test system: Meth A cells (murine sarcoma cell line); assay: Cytotoxicity on Meth A cells, MTT method; conditions: for MethA IC50: 4 h
Protocol: Peptide solutions (0.1 ml) were added and the plates incubated at 37° C. for 30 minutes, 4 hours or 24 hours. The cytotoxicity was measured using the MTT method (Mosmann et al., J. Immunol. (1986) 136, 2348-2357).
Cells in the growth phase were harvested and washed in fresh medium and injected subcutaneously into the abdominal region of the mice.
The cytotoxic effect of the peptides on different murine and human tumor cells were measured using the MTT method (Mosmann et al., J. Immunol. (1986) 136, 2348-2357). MTT is a soluble tetrazolium salt yielding a yellow solution when prepared in media or salt solutions lacking phenol red. Dissolved MTT is converted to an insoluble purple formazan by cleavage of the tetrazolium ring by dehydrogenase enzymes. This water insoluble formazan can be solubilized using isopropanol or other solvents and the dissolved material is measured spectrophotometrically. The absorbance was measured as a function of concentration of converted dye.
Cells were maintained in […] medium containing 10% FBS, 1% L-glutamine and 0.1% penicillin and streptomycin. Cells to be used in the assay were grown to confluency, trypsinated and split to single cell suspension, counted and centrifuged at 1500 rpm for 10 min. […][…] of cell suspension was transferred to each well on a 96-well microtiter plate. The cells were stimulated by adding […] of various concentrations of peptides diluted with assay medium to each well. The final concentrations of peptide were for example: 5, 10, 20, 40, 60, 80, 100, and 200 mg/ml. […] As a negative control only medium was added to the cells, and as a positive control (100% killing) 1% triton X-100 was added. Following an incubation period of 4 h., 20 ml MTT dissolved in PBS at a concentration of 5 mg/ml was added to each well, and the plate was incubated further for 2 h. 130 ml of the supernatant were then removed and […] acid alcohol (0.04-0.1 N HCl in isopropanol) added to each well to dissolve the dark blue crystals. The plate was placed on a shaker for 1 h and read spectrophotometrically at 590 nm in a microtiterplate reader using the Softmaxâ program.

[2] = test system: Escherichia coli ATCC 25922; format: cell-based
Method in brief: (§1)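 Standard broth microdilution MIC in 1% Bacto Peptone water, inoculum 2×10^6 CFU/ml of mid-log-phase bacteria grown in 2% peptone water. Run in triplicate; peptide concentration in wells verified by HPLC.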

[3] = test system: Staphylococcus aureus ATCC 25923; format: cell-based
Method in brief: as §1

[4] = test system: human red blood cells; assay: Hemolytic assay; format: cell-based; conditions: for % Hemolysis 10 μg/ml / % Hemolysis 100 μg/ml: red cells of human
Protocol: The hemolytic activities of the peptides were determined using fresh human red blood cells. 8 ml blood was taken from a healthy person. 4 ml blood was transferred to a polycarbonate tube containing heparin to a final concentration of 10 U/ml, and the remaining 4 ml blood was transferred to a glass tube containing EDTA with final concentration of 15% EDTA. The erythrocytes were isolated from heparin-treated blood by centrifugation in 1500 rpm for 10 min and washed three times with phosphate-buffered saline (PBS) to remove plasma and buffy coat. The cell pellet was resuspended in PBS to make the final volume of 4 ml. The peptide was diluted to a concentration of 2 mg/ml and 0.1 mg/ml. The peptide was further diluted to the concentrations as stated in Table 15. For each tube PBS was added first, then RBCs and peptide solutions. The hematocrit in the blood treated with EDTA was determined after 30 min with Sysmex K-1000, and the resuspended RBCs were diluted into 10% hematocrit. RBCs in PBS (1%) with and without peptides (Table 15) were incubated in a shaker at […] for 1 hour and then centrifuged at 4000 rpm for 5 min. The supernatant were carefully transferred to new polycarbonate tubes and the absorbance of the supernatant was measured at 540 nm. Baseline hemolysis was hemoglobin released in the presence of PBS, and 100% hemolysis was hemoglobin released in the presence of 0.1% Triton X-100.

Compound | MIC E. coli ([2]; ATCC 25922) [µg/mL] | MIC S. aureus ([3]; ATCC 25923) [µg/mL] | % Hemolysis 10 μg/ml [4] [%] | % Hemolysis 100 μg/ml [4] [%] | further results
Linear LFB (17-41) modified with Pmc: linear LFB (17-41) modified with Pmc | – | – | – | – | cytotoxic effect on Meth A cells compared with another peptide [1]: slightly more effective than Pmc modified LFB 17-31
CSCC[C@H](NC(=O)[C@H](CCCNC(=N)N)NC(=O)[C@H](C)NC(=O)[C@H](CCC(N)=O)NC(=O)[C@H](Cc1c(S(=O)(=O)c2c(C)c(C)c3c(c2C)CCC(C)(C)O3)[nH]c2ccccc12)NC(=O)[C@H](CCCNC(=N)N)NC(=O)[C@H](CCCNC(=N)N)NC(=O)[C@H](CSCNC(C)=O)NC(=O)[C@H](CCCCN)NC(=O)[C@@H](N)Cc1ccccc1)C(=O)N[C@@H](CCCCN)C(=O)N[C@@H](CCCCN)C(=O)N[C@@H](CC(C)C)C(=O)NCC(=O)N[C@@H](C)C(=O)O [LFB A8 PMC] (H-FKC(Acm)RR[Trp(2-Pmc)]QARMKKLGA-OH) | 15 (≈ 6.77 µM) | 17.5 (≈ 7.89 µM) | – | – | MethA IC50 [1]: 275 µg/mL
CSCC[C@H](NC(=O)[C@H](CCCNC(=N)N)NC(=O)[C@H](Cc1c[nH]c2ccccc12)NC(=O)[C@H](C)NC(=O)[C@H](Cc1c[nH]c2ccccc12)NC(=O)[C@H](CCCNC(=N)N)NC(=O)[C@H](CCCNC(=N)N)NC(=O)OCC1c2ccccc2-c2ccccc21)C(=O)N[C@@H](CCCCN)C(=O)N[C@@H](CCCCN)C(=O)O [LFB 20-28 A4 FMOC] (Fmoc-RRWAWRMKK-OH) | – | – | – | – | MethA IC50 [1]: 120 µg/mL
H-FKWRRWQWRMKKLWA-OH [LFB W3, 14, H2N-Phe-Lys-Trp-Arg-Arg-Trp-Gln-Trp-Arg-Met-Lys-Lys-Leu-Trp-Ala-COOH] | – | – | 3.1 | 5.1 | MIC E. coli ([2]; Table 6): 10 µg/mL; MIC E. coli ([2]; Table 12): 10 µg/mL; MIC S. aureus ([3]; Table 6, unit assumed): 10 µg/mL; MIC S. aureus ([3]; Table 12): 10 µg/mL; EC 50 [4]: >1000 µg/mL; EC50 [4]: > 453 µM
CSCC[C@@H](NC(=O)[C@@H](CCCCN)NC(=O)[C@@H](CCCCN)NC(=O)[C@@H](CC(C)C)NC(=O)CNC(=O)[C@@H](C)N)C(=O)N[C@H](CCCNC(=N)N)C(=O)N[C@H](Cc1c[nH]c2ccccc12)C(=O)N[C@H](CCC(N)=O)C(=O)N[C@H](Cc1c[nH]c2ccccc12)C(=O)N[C@H](CCCNC(=N)N)C(=O)N[C@H](CCCNC(=N)N)C(=O)N[C@H](CSCNC(C)=O)C(=O)N[C@H](CCCCN)C(=O)N[C@H](Cc1ccccc1)C(=O)O [Retro-Enantio LFB 17-31] | – | – | 3.31 | – | MIC E. coli ([2]; Table 3): 6.25 µg/mL (≈ 3.03 µM); MIC S. aureus ([3]; Table 3, unit assumed): 80 µg/mL (≈ 38.7 µM)
CSCC[C@H](NC(=O)[C@H](C)NC(=O)[C@H](Cc1c[nH]c2ccccc12)NC(=O)[C@H](CCC(N)=O)NC(=O)[C@H](Cc1c[nH]c2ccccc12)NC(=O)[C@H](CCCNC(=N)N)NC(=O)[C@H](CC(C)C)NC(=O)[C@H](CSCNC(C)=O)NC(=O)[C@H](CCCCN)NC(=O)[C@@H](N)CCC(=O)O)C(=O)N[C@@H](CCCNC(=N)N)C(=O)N[C@@H](CCCCN)C(=O)N[C@H](C(=O)NCC(=O)NCC(=O)O)C(C)C [LFM A9 W8] (H-EKC(Acm)LRWQWAMRKVGG-OH; N-terminus assumed) | >1000 | >1000 | 2.5 | 3.5 | –
CSCC[C@H](NC(=O)[C@H](CCCNC(=N)N)NC(=O)[C@H](Cc1ccc2ccccc2c1)NC(=O)[C@H](CCC(N)=O)NC(=O)[C@H](Cc1c(S(=O)(=O)c2c(C)c(C)c3c(c2C)CCC(C)(C)O3)[nH]c2ccccc12)NC(=O)[C@H](CCCNC(=N)N)NC(=O)[C@H](CCCNC(=N)N)NC(=O)[C@H](CSCNC(C)=O)NC(=O)[C@H](CCCCN)NC(=O)[C@@H](N)Cc1ccccc1)C(=O)N[C@@H](CCCCN)C(=O)N[C@@H](CCCCN)C(=O)N[C@@H](CC(C)C)C(=O)NCC(=O)N[C@@H](C)C(=O)O [LFB Nal8 PMC] | 20 (≈ 8.54 µM) | 10 (≈ 4.27 µM) | 6.96 | 18.86 | –
CSCC[C@H](NC(=O)[C@H](CCC(=O)O)NC(=O)[C@H](CC(N)=O)NC(=O)[C@H](CCC(N)=O)NC(=O)[C@H](Cc1c[nH]c2ccccc12)NC(=O)[C@H](CCCNC(=N)N)NC(=O)[C@H](CC(C)C)NC(=O)[C@H](CSCNC(C)=O)NC(=O)[C@H](CCCCN)NC(=O)[C@@H](N)CCC(=O)O)C(=O)N[C@@H](CCCNC(=N)N)C(=O)N[C@@H](CCCCN)C(=O)N[C@H](C(=O)NCC(=O)NCC(=O)O)C(C)C [LFM, EKCLRWQNEMRKVGG] (H-EKC(Acm)LRWQNEMRKVGG-OH; N-terminus assumed) | >1000 | >1000 | 2.3 | 3.1 | –
CSCC[C@H](NC(=O)[C@H](CCCNC(=N)N)NC(=O)[C@H](Cc1ccc2ccccc2c1)NC(=O)[C@H](CCC(N)=O)NC(=O)[C@H](Cc1c[nH]c2ccccc12)NC(=O)[C@H](CCCNC(=N)N)NC(=O)[C@H](CCCNC(=N)N)NC(=O)[C@H](CSCNC(C)=O)NC(=O)[C@H](CCCCN)NC(=O)[C@@H](N)Cc1ccccc1)C(=O)N[C@@H](CCCCN)C(=O)N[C@@H](CCCCN)C(=O)N[C@@H](CC(C)C)C(=O)NCC(=O)N[C@@H](C)C(=O)O [LFB Nal8] | 10 (≈ 4.82 µM) | 50 (≈ 24.1 µM) | 3 | 4.7 | –

The next lines start with results.

MIC E. coli ([2]; ATCC 25922) [µg/mL] | MIC S. aureus ([3]; ATCC 25923) [µg/mL] | Compound | % Hemolysis 10 μg/ml [4] [%] | % Hemolysis 100 μg/ml [4] [%] | further results
25 | 100 | H-FKARRWQWRMKKLGA-OH [LFB A3] | – | – | MethA IC50 [1]: 500 µg/mL
40 | >100 | RRWQWRMKKLG-OH [LFB 20-30] | 2.16 | 3.1 | –
75 (≈ 37.4 µM) | 500 (≈ 249 µM) | CSCC[C@H](NC(=O)[C@H](CCC(=O)O)NC(=O)[C@H](Cc1c[nH]c2ccccc12)NC(=O)[C@H](CCC(N)=O)NC(=O)[C@H](Cc1c[nH]c2ccccc12)NC(=O)[C@H](CCCNC(=N)N)NC(=O)[C@H](CC(C)C)NC(=O)[C@H](CSCNC(C)=O)NC(=O)[C@H](CCCCN)NC(=O)[C@@H](N)CCCNC(=N)N)C(=O)N[C@@H](CCCNC(=N)N)C(=O)N[C@@H](CCCCN)C(=O)N[C@H](C(=O)NCC(=O)NCC(=O)O)C(C)C [LFM R1, W8] (H-RKC(Acm)LRWQWEMRKVGG-OH; N-terminus assumed) | 2.8 | 3.48 | –
>200 | >200 | CSCC[C@H](NC(=O)[C@H](CCCNC(=N)N)NC(=O)[C@H](Cc1c[nH]c2ccccc12)NC(=O)[C@H](CCC(N)=O)NC(=O)[C@H](C)NC(=O)[C@H](CCCNC(=N)N)NC(=O)[C@H](CCCNC(=N)N)NC(=O)[C@H](CSCNC(C)=O)NC(=O)[C@H](CCCCN)NC(=O)[C@@H](N)Cc1ccccc1)C(=O)N[C@@H](CCCCN)C(=O)N[C@@H](CCCCN)C(=O)N[C@@H](CC(C)C)C(=O)NCC(=O)N[C@@H](C)C(=O)O [LFB A6] (H-FKC(Acm)RRAQWRMKKLGA-OH; N-terminus assumed) | 2.78 | 3.27 | –
>1000 | 1000 (≈ 506 µM) | CSCC[C@H](NC(=O)[C@H](CCC(=O)O)NC(=O)[C@H](Cc1c[nH]c2ccccc12)NC(=O)[C@H](CCC(N)=O)NC(=O)[C@H](Cc1c[nH]c2ccccc12)NC(=O)[C@H](CCCNC(=N)N)NC(=O)[C@H](CC(C)C)NC(=O)[C@H](CSCNC(C)=O)NC(=O)[C@H](CCCCN)NC(=O)[C@@H](N)CCC(=O)O)C(=O)N[C@@H](CCCNC(=N)N)C(=O)N[C@@H](CCCCN)C(=O)N[C@H](C(=O)NCC(=O)NCC(=O)O)C(C)C [LFM W8, H2N-Glu-Lys-Cys-Leu-Arg-Trp-Gln-Trp-Glu-Met-Arg-Lys-Val-Gly-Gly-COOH] (H-EKC(Acm)LRWQWEMRKVGG-OH) | 2.6 | 4.8 | –
